Consider one sequence from US9746466B2, “Integrated compound discovery systems and methods” (Wake Forest University, priority 2011, dated 2017).

For the data set, the target named is thrombin (Homo sapiens, UniProt P00734). Kind of data set: on-chip binding of TAMRA-labeled thrombin to bead-displayed oligonucleotides on Ion Torrent sequencing chips, fluorescence imaging. As to conditions: after washing, fluorescence imaging of wells, 20mer GT randomer library doped with thrombin aptamer. The text has this: Embodiments of the present invention reduce uncertainty due to amplification-based biases, blind spots and inference-based methods of deconvoluting candidate sequences through direct, on-chip analysis of candidate sequences and their target-binding properties. […] We obtained DNA libraries containing a 20mer GT randomer region flanked by Ion Torrent adaptor sequences (ITD, Coralville, Iowa). Libraries were doped with increasing amounts of the thrombin aptamer (with adaptors). […] The number of full-length reads correlates with the amount of thrombin aptamer doped into GT randomer libraries.

Consider “GGTTGGTGTGGTTGG (DNA, backbone not given here) [thrombin aptamer]”, for which the “intensity of the TAMRA signal” value is “highest” and the “residence time of the TAMRA signal” value is “highest”.
